Columns and labels:
Experiment in all cases: Ras-Raf disruption / FRET / MOA assay (BRAF RBD)
Assay type in all cases: biochemical
[1] = molecular target: KRAS G12C (Homo sapiens, UniProt P01116+P62937, G12C); conditions: Ras-Raf disruption, with Cyclophilin A; read-out: KRAS G12C FRET data IC50
Summary of the method: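 TR-FRET read-out after 1.5 h with anti-His Eu-W1024 (10 nM) and anti-GST APC (50 nM), following 3 h at 25 °C of compound (top 30 μM, 3-fold, 10 points) with 25 μM Cyclophilin A, 12.5 nM GMPPNP-loaded K-Ras G12C and 50 nM BRAF RBD; IC50 reported.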

[2] = molecular target: KRAS G12V (Homo sapiens, UniProt P01116+P62937, G12V); conditions: Ras-Raf disruption, with Cyclophilin A; read-out: KRAS G12V FRET data IC50
KRAS G12V, sequence (P01116 1-169 isoform P01116-2 G12V limits assumed): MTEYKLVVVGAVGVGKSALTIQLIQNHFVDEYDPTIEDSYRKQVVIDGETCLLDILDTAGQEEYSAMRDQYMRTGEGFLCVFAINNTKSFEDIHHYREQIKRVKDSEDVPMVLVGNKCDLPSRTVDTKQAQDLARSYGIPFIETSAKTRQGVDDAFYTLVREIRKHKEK
KRAS G12V, sequence (P62937 whole entry): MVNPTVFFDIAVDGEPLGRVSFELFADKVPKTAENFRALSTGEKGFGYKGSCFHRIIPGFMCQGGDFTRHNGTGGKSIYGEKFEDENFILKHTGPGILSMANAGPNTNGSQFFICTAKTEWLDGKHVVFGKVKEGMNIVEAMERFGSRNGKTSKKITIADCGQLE
Summary of the method: (§1)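 Compound-induced Ras–Cyclophilin A ternary complex disrupting BRAF RBD binding, read as IC50 from reduced TR-FRET ratio relative to DMSO. Final: Ras-GMPPNP 12.5 nM, BRAF RBD 50 nM, Cyclophilin A 25 μM, top compound 30 μM (3-fold, 10 points); 3 h at 25 °C, then 1.5 h with detection antibodies.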

[3] = molecular target: NRAS G12C (Homo sapiens, UniProt P01111+P62937, G12C); conditions: NRAS G12C; read-out: NRAS G12C FRET data IC50
NRAS G12C, sequence (P01111 whole entry G12C): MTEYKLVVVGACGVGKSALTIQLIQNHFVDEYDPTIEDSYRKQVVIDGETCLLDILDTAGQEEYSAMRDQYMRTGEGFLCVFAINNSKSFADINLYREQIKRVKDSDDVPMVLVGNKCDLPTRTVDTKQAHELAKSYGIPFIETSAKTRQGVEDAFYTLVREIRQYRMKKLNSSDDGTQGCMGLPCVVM
NRAS G12C, sequence (P62937 whole entry): as the sequence (P62937 whole entry) above
Summary of the method: as §1

[4] = molecular target: KRAS G12D (Homo sapiens, UniProt P01116+P62937, G12D); conditions: Ras-Raf disruption, with Cyclophilin A; read-out: KRAS G12D FRET data IC50
KRAS G12D, sequence (P01116 1-169 isoform P01116-2 G12D limits assumed): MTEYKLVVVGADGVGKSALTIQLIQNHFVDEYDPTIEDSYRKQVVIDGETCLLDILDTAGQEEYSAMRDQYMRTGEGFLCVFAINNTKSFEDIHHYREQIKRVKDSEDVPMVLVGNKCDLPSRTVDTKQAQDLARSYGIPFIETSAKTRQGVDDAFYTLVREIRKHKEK
KRAS G12D, sequence (P62937 whole entry): as the sequence (P62937 whole entry) above
Summary of the method: as §1

[5] = molecular target: NRAS WT (Homo sapiens, UniProt P01111+P62937); conditions: NRAS WT; read-out: NRAS WT FRET data IC50
NRAS WT, sequence (P01111 whole entry): as the sequence (P01111 whole entry G12C) above, with C12G counted along it
NRAS WT, sequence (P62937 whole entry): as the sequence (P62937 whole entry) above
Summary of the method: as §1

[6] = molecular target: KRAS Q61H (Homo sapiens, UniProt P01116+P62937, Q61H); conditions: KRAS Q61H; read-out: KRAS Q61H FRET data IC50
KRAS Q61H, sequence (P01116 1-169 isoform P01116-2 Q61H limits assumed): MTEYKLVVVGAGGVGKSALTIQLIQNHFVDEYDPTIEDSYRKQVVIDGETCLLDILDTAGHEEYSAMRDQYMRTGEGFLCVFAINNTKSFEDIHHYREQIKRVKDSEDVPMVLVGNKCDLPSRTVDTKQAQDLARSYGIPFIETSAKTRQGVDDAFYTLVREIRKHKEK
KRAS Q61H, sequence (P62937 whole entry): as the sequence (P62937 whole entry) above
Summary of the method: as §1

[7] = molecular target: KRAS WT (Homo sapiens, UniProt P01116+P62937); conditions: Ras-Raf disruption, with Cyclophilin A; read-out: KRAS WT FRET data IC50
KRAS WT, sequence (P01116 1-169 isoform P01116-2 limits assumed): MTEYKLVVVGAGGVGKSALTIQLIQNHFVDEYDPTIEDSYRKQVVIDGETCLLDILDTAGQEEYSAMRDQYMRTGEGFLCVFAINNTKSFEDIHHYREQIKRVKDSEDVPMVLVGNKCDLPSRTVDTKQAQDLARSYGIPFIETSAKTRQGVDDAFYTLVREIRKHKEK
KRAS WT, sequence (P62937 whole entry): as the sequence (P62937 whole entry) above
Summary of the method: as §1

[8] = molecular target: KRAS G12S (Homo sapiens, UniProt P01116+P62937, G12S); conditions: Ras-Raf disruption, with Cyclophilin A; read-out: KRAS G12S FRET data IC50
KRAS G12S, sequence (P01116 1-169 isoform P01116-2 G12S limits assumed): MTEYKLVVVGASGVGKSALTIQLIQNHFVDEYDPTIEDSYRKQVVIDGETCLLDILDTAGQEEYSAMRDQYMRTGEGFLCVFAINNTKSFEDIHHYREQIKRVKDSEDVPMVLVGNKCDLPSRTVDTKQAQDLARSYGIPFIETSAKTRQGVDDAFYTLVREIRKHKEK
KRAS G12S, sequence (P62937 whole entry): as the sequence (P62937 whole entry) above
Summary of the method: as §1

[9] = molecular target: KRAS G13C (Homo sapiens, UniProt P01116+P62937, G13C); conditions: Ras-Raf disruption, with Cyclophilin A; read-out: KRAS G13C FRET data IC50
KRAS G13C, sequence (P01116 1-169 isoform P01116-2 G13C limits assumed): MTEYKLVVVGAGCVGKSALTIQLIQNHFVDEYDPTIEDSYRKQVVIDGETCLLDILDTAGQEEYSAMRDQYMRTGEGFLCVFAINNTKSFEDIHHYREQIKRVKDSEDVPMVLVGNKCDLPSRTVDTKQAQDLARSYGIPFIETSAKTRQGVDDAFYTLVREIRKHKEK
KRAS G13C, sequence (P62937 whole entry): as the sequence (P62937 whole entry) above
Summary of the method: as §1

[10] = molecular target: KRAS G13D (Homo sapiens, UniProt P01116+P62937, G13D); conditions: Ras-Raf disruption, with Cyclophilin A; read-out: KRAS G13D FRET data IC50
KRAS G13D, sequence (P01116 1-169 isoform P01116-2 G13D limits assumed): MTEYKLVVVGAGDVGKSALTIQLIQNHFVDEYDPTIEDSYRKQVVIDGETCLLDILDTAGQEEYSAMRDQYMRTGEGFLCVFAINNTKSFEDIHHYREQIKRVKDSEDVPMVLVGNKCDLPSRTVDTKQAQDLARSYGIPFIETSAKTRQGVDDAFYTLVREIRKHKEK
KRAS G13D, sequence (P62937 whole entry): as the sequence (P62937 whole entry) above
Summary of the method: as §1

[11] = molecular target: NRAS Q61R (Homo sapiens, UniProt P01111+P62937, Q61R); conditions: NRAS Q61R; read-out: NRAS Q61R FRET data IC50
NRAS Q61R, sequence (P01111 whole entry Q61R): as the sequence (P01111 whole entry G12C) above, with C12G, Q61R counted along it
NRAS Q61R, sequence (P62937 whole entry): as the sequence (P62937 whole entry) above
Summary of the method: as §1

[12] = molecular target: NRAS Q61K (Homo sapiens, UniProt P01111+P62937, Q61K); conditions: NRAS Q61K; read-out: NRAS Q61K FRET data IC50
NRAS Q61K, sequence (P01111 whole entry Q61K): as the sequence (P01111 whole entry G12C) above, with C12G, Q61K counted along it
NRAS Q61K, sequence (P62937 whole entry): as the sequence (P62937 whole entry) above
Summary of the method: as §1

KRAS G12C, sequence (P01116 1-169 isoform P01116-2 G12C limits assumed): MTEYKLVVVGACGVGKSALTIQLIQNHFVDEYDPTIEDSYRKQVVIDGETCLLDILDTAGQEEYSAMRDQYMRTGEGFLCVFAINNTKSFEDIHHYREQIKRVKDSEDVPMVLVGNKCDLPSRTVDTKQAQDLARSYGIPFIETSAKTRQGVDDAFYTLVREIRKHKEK
KRAS G12C, sequence (P62937 whole entry): as the sequence (P62937 whole entry) above

Row | SMILES | IC50 [1] [µM] | IC50 [2] [µM] | IC50 [3] [µM] | IC50 [4] [µM] | IC50 [5] [µM] | IC50 [6] [µM] | IC50 [7] [µM] | IC50 [8] [µM] | IC50 [9] [µM] | IC50 [10] [µM] | IC50 [11] [µM] | IC50 [12] [µM]
1 | CCn1c(-c2cccnc2[C@H](C)OC)c2c3cc(ccc31)-c1cc(O)cc(c1)C[C@H](NC(=O)[C@H](C(C)C)N(C)C(=O)N(C)C1CN(C(=O)[C@H]3CN3)C1)C(=O)N1CCC[C@H](N1)C(=O)OCC(C)(C)C2 (atropisomer, axis not shown) [Example 203] | < 0.01 | 0.1 to 1 | < 0.01 | 0.1 to 1 | 0.1 to 1 | 0.01 to 0.1 | 0.1 to 1 | 0.1 to 1 | 0.01 to 0.1 | 0.1 to 1 | 0.1 to 1 | 0.1 to 1
2 | CCn1c(-c2cccnc2[C@H](C)OC)c2c3cc(ccc31)-c1cc(O)cc(c1)C[C@H](NC(=O)[C@H](C(C)C)N(C)C(=O)N(C)CCN(C)C(=O)[C@H]1CN1)C(=O)N1CCC[C@H](N1)C(=O)OCC(C)(C)C2 (atropisomer, axis not shown) [Example 204] | < 0.01 | 0.01 to 0.1 | < 0.01 | 0.1 to 1 | 0.01 to 0.1 | 0.01 to 0.1 | 0.01 to 0.1 | 0.01 to 0.1 | 0.01 to 0.1 | 0.01 to 0.1 | 0.1 to 1 | 0.1 to 1
3 | CCn1c(-c2cccnc2[C@H](C)OC)c2c3cc(ccc31)-c1cc(O)cc(c1)C[C@H](NC(=O)[C@H](C(C)C)N(C)C(=O)N1CCN(C(=O)[C@@H]3CN3)CC1=O)C(=O)N1CCC[C@H](N1)C(=O)OCC(C)(C)C2 (atropisomer, axis not shown) [Example 205] | 0.01 to 0.1 | 0.1 to 1 | 0.01 to 0.1 | 1 to 10 | 0.01 to 0.1 | 0.01 to 0.1 | 0.01 to 0.1 | 0.1 to 1 | < 0.01 | 0.1 to 1 | 0.1 to 1 | 0.1 to 1
4 | CCn1c(-c2cccnc2[C@H](C)OC)c2c3cc(ccc31)-c1cc(O)cc(c1)C[C@H](NC(=O)[C@H](C(C)C)N(C)C(=O)[C@H]1CCN(C(=O)[C@H]3CN3)[C@H]1C)C(=O)N1CCC[C@H](N1)C(=O)OCC(C)(C)C2 (atropisomer, axis not shown) [Example 206] | 0.01 to 0.1 | 0.1 to 1 | 0.01 to 0.1 | 1 to 10 | 0.1 to 1 | 0.1 to 1 | 0.1 to 1 | 0.1 to 1 | 0.1 to 1 | 0.1 to 1 | 1 to 10 | 1 to 10
5 | CCn1c(-c2cccnc2[C@H](C)OC)c2c3cc(ccc31)-c1cc(O)cc(c1)C[C@H](NC(=O)[C@H](C(C)C)N(C)C(=O)[C@@H]1CCN(C(=O)[C@H]3CN3)[C@@H]1C)C(=O)N1CCC[C@H](N1)C(=O)OCC(C)(C)C2 (atropisomer, axis not shown) [Example 207] | 0.01 to 0.1 | 0.01 to 0.1 | 0.01 to 0.1 | 0.1 to 1 | 0.01 to 0.1 | 0.01 to 0.1 | 0.01 to 0.1 | 0.01 to 0.1 | 0.01 to 0.1 | 0.1 to 1 | 0.1 to 1 | 0.1 to 1
6 | CCn1c(-c2cccnc2[C@H](C)OC)c2c3cc(ccc31)-c1cc(O)cc(c1)C[C@H](NC(=O)[C@H](C(C)C)N(C)C(=O)[C@@H]1CCN(C(=O)[C@@H]3CN3)[C@@H]1C)C(=O)N1CCC[C@H](N1)C(=O)OCC(C)(C)C2 (atropisomer, axis not shown) [Example 208] | 0.01 to 0.1 | 0.01 to 0.1 | 0.01 to 0.1 | 0.1 to 1 | 0.01 to 0.1 | 0.01 to 0.1 | 0.01 to 0.1 | 0.01 to 0.1 | 0.01 to 0.1 | 0.1 to 1 | 0.1 to 1 | 0.1 to 1
7 | CCn1c(-c2cccnc2[C@H](C)OC)c2c3cc(ccc31)-c1cc(O)cc(c1)C[C@H](NC(=O)[C@@H](COC1CCN(C(=O)[C@H]3CN3)CC1)C(C)C)C(=O)N1CCC[C@H](N1)C(=O)OCC(C)(C)C2 (atropisomer, axis not shown) [Example 211] | 0.01 to 0.1 | 1 to 10 | 0.01 to 0.1 | 1 to 10 | 0.1 to 1 | 0.1 to 1 | 0.1 to 1 | 1 to 10 | 0.1 to 1 | 1 to 10 | 1 to 10 | 1 to 10
8 | CCn1c(-c2cccnc2[C@H](C)OC)c2c3cc(ccc31)-c1cc(O)cc(c1)C[C@H](NC(=O)[C@H](C(C)C)N(C)C(=O)c1nc(NC(=O)[C@H]3CN3)cs1)C(=O)N1CCC[C@H](N1)C(=O)OCC(C)(C)C2 (atropisomer, axis not shown) [Example 212] | 0.1 to 1 | 0.1 to 1 | 0.1 to 1 | 1 to 10 | 0.1 to 1 | 0.01 to 0.1 | 0.1 to 1 | 0.1 to 1 | 0.01 to 0.1 | 0.1 to 1 | 0.1 to 1 | 0.1 to 1
9 | CCn1c(-c2cccnc2[C@H](C)OC)c2c3cc(ccc31)-c1csc(n1)C[C@H](NC(=O)[C@H](C(C)C)N(C)C(=O)N(C)CCN(C)C(=O)[C@H]1CN1)C(=O)N1CCC[C@H](N1)C(=O)OCC(C)(C)C2 (atropisomer, axis not shown) [Example 216] | 0.01 to 0.1 | 0.1 to 1 | 0.01 to 0.1 | 0.1 to 1 | 0.1 to 1 | 0.01 to 0.1 | 0.1 to 1 | 0.1 to 1 | 0.1 to 1 | 0.1 to 1 | 0.1 to 1 | 0.01 to 0.1
10 | CCn1c(-c2cccnc2[C@H](C)OC)c2c3cc(ccc31)-c1csc(n1)C[C@H](NC(=O)[C@H](C(C)C)N(C)C(=O)N(C)CCN(C)C(=O)[C@@H]1CN1)C(=O)N1CCC[C@H](N1)C(=O)OCC(C)(C)C2 (atropisomer, axis not shown) [Example 217] | 0.01 to 0.1 | 0.1 to 1 | 0.01 to 0.1 | 0.1 to 1 | 0.01 to 0.1 | 0.01 to 0.1 | 0.1 to 1 | 0.1 to 1 | 0.1 to 1 | 0.1 to 1 | 0.1 to 1 | 0.01 to 0.1

— patent US20230233569A1 (Revolution Medicines, Inc., priority 2020, published 2023)
